According to ChEMBL document CHEMBL1145527, “Design, synthesis, and antiproliferative and CDK2-cyclin a inhibitory activity of novel flavopiridol analogues” (Bioorg Med Chem, 2007):

What was measured:
[1] = target: Cyclin-dependent kinase 2/cyclin A (Homo sapiens, UniProt P24941); assay: Inhibition of CDK2/Cyclin A; assay type: protein-complex assay
[2] = Antiproliferative activity against ID8 cells; assay type: functional, cell-based; settings: Mus musculus
MCF7 = assay: Antiproliferative activity against MCF7 cells; assay type: functional, cell-based; settings: Homo sapiens

Compound | IC50 [1] [µM] | IC50 [2] [µM] | IC50 (MCF7) [µM]
CC(C)(C)OC(=O)N[C@@H](Cc1ccccc1)C(=O)Nc1ccc(O)c2c(=O)cc(-c3ccccc3Cl)oc12 | 417 | 5.3 | 7.1
O=C(Nc1ccc(O)c2c(=O)cc(-c3ccccc3Cl)oc12)c1ccc(Cl)cc1 | 417 | 5.5 | 4.6
CSCC[C@@H](NC(=O)OC(C)(C)C)C(=O)Nc1ccc(O)c2c(=O)cc(-c3ccccc3Cl)oc12 | – | 13 | 2.8
Cc1ccc(C(=O)Nc2c(O)cc(O)c3c(=O)cc(-c4ccccc4Cl)oc23)cc1 | 90 | – | 9.7
O=C(Nc1c(O)cc(O)c2c(=O)cc(-c3ccccc3Cl)oc12)c1ccccc1 | 91 | – | 8.5
O=C(Nc1c(O)cc(O)c2c(=O)cc(-c3ccccc3Cl)oc12)c1ccc(Cl)cc1 | 339 | – | 13
CC(C)(C)OC(=O)N[C@H](Cc1ccccc1)C(=O)Nc1ccc(O)c2c(=O)cc(-c3ccccc3Cl)oc12 | 417 | 12 | 4.5
C[C@H](NC(=O)OC(C)(C)C)C(=O)Nc1ccc(O)c2c(=O)cc(-c3ccccc3Cl)oc12 | 417 | 9.8 | 5.5
CSCC[C@H](NC(=O)OC(C)(C)C)C(=O)Nc1ccc(O)c2c(=O)cc(-c3ccccc3Cl)oc12 | – | 6.2 | 20
Cc1ccc(C(=O)Nc2ccc(O)c3c(=O)cc(-c4ccccc4Cl)oc23)cc1 | – | 16 | 10
COc1ccc(C(=O)Nc2c(O)cc(O)c3c(=O)cc(-c4ccccc4Cl)oc23)cc1 | 54 | – | 13
CC(C)C[C@@H](NC(=O)OC(C)(C)C)C(=O)Nc1ccc(O)c2c(=O)cc(-c3ccccc3Cl)oc12 | 417 | 17 | –
CCC(C)OC(=O)Nc1ccc(O)c2c(=O)cc(-c3ccccc3Cl)oc12 (stereo not given) | 417 | 18 | 30
C[C@@H](NC(=O)OC(C)(C)C)C(=O)Nc1ccc(O)c2c(=O)cc(-c3ccccc3Cl)oc12 | – | 104 | 5.5
O=c1cc(-c2ccccc2Cl)oc2c(N3CCOCC3)ccc(O)c12 | 417 | 7.9 | 20
O=C(Nc1ccc(O)c2c(=O)cc(-c3ccccc3Cl)oc12)c1ccc(Cl)c(Cl)c1 | 217 | 13 | 15
COc1ccc(C(=O)Nc2ccc(O)c3c(=O)cc(-c4ccccc4Cl)oc23)cc1 | 383 | 5 | 3.5
O=C(Nc1ccc(O)c2c(=O)cc(-c3ccccc3Cl)oc12)c1ccccc1 | 417 | 13 | 7.1
CC(C)C[C@H](NC(=O)OC(C)(C)C)C(=O)Nc1ccc(O)c2c(=O)cc(-c3ccccc3Cl)oc12 | 417 | 5.1 | 4
CN1CC[C@H](c2c(O)cc(O)c3c(=O)cc(-c4ccccc4Cl)oc23)[C@H](O)C1 [ALVOCIDIB] | – | 0.007 | 0.026
